Where “and” joins values, the source holds several entries; their conditions need not be identical. Equal values may be shown once. Toxic doses and inconclusive results are not listed.

This test has as its system L1210 leukemia ip in BDF1 mice, survival T/C. The test can be described thus: NCI In Vivo Anticancer Drug Screen. Data for tumor model L1210 Leukemia (intraperitoneal) in B6D2F1 (BDF1) mice. The conditions noted are these: endpoint: mean survival time, higher = longer survival. An outline of the steps:
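Antitumor effect is assessed in tumor-bearing animals. Survival in the compound arm is compared with a vehicle-dosed control arm and expressed as their quotient.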

Where [1] appears, read: dose: 100.0 mg/kg/injection, schedule: Q04DX003 (ip), vehicle: saline with Tween-80.
Where [2] appears, read: dose: 200.0 mg/kg/injection, schedule: Q04DX003 (ip), vehicle: saline with Tween-80.
[3] abbreviates: dose: 100.0 mg/kg/injection, schedule: Q01DX009 (ip), vehicle: Klucel (hydroxypropylcellulose) (HPC).
The mark [4] stands for this setting: dose: 100.0 mg/kg/injection, schedule: Q04DX003 (ip), vehicle: Klucel (hydroxypropylcellulose) (HPC).
[5] abbreviates: dose: 200.0 mg/kg/injection, schedule: Q04DX003 (ip), vehicle: Klucel (hydroxypropylcellulose) (HPC).
[6] abbreviates: dose: 400.0 mg/kg/injection, schedule: Q04DX003 (ip), vehicle: Klucel (hydroxypropylcellulose) (HPC).
Where [7] appears, read: dose: 5.0 mg/kg/injection, schedule: Q01DX001 (ip), vehicle: saline.
Setting [8] is: dose: 10.0 mg/kg/injection, schedule: Q01DX001 (ip), vehicle: saline.
[9] abbreviates: dose: 400.0 mg/kg/injection, schedule: Q01DX001 (ip), vehicle: carboxymethylcellulose (CMC).
The mark [10] stands for this setting: dose: 400.0 mg/kg/injection, schedule: Q04DX003 (ip), vehicle: saline with Tween-80.

For the compound `O=S(=O)(CBr)N1CCOCC1`, the T/C was 93 % of control (dose: 50.0 mg/kg/injection, schedule: Q04DX003 (ip), vehicle: saline with Tween-80); 98 % of control under setting [1]; 98 % of control under setting [2].

As for `N#Cc1ccc(-c2ccc(C#N)cc2Br)c(Br)c1`, the T/C runs as follows: under setting [3], 93 % of control; under setting [4], 94 % of control; (dose: 200.0 mg/kg/injection, schedule: Q01DX009 (ip), vehicle: Klucel (hydroxypropylcellulose) (HPC)) 93 % of control; under setting [5], 95 % of control; (dose: 400.0 mg/kg/injection, schedule: Q01DX009 (ip), vehicle: Klucel (hydroxypropylcellulose) (HPC)) 88 % of control; under setting [6], 96 % of control.

In the case of `Cc1scc[n+]1Cc1ccccc1[N+](=O)[O-]`, the T/C reads like this: under setting [7], 109 % of control; under setting [8], 109 % of control; (dose: 20.0 mg/kg/injection, schedule: Q01DX001 (ip), vehicle: saline) 105 % of control; (dose: 40.0 mg/kg/injection, schedule: Q01DX001 (ip), vehicle: saline) 109 % of control; (dose: 80.0 mg/kg/injection, schedule: Q01DX001 (ip), vehicle: saline) 100 % of control.

As for `O=NN(CCCl)C(=O)NCC1CCC(CNC(=O)N(CCCl)N=O)CC1` (stereo not given), the T/C reads like this: (dose: 6.2 mg/kg/injection, schedule: Q01DX009 (ip), vehicle: carboxymethylcellulose (CMC)) 113 % of control; (dose: 12.5 mg/kg/injection, schedule: Q01DX009 (ip), vehicle: carboxymethylcellulose (CMC)) 111 % of control; (dose: 25.0 mg/kg/injection, schedule: Q01DX009 (ip), vehicle: Klucel (hydroxypropylcellulose) (HPC)) 101 % of control; (dose: 25.0 mg/kg/injection, schedule: Q01DX009 (ip), vehicle: carboxymethylcellulose (CMC)) 122 % of control; (dose: 50.0 mg/kg/injection, schedule: Q01DX009 (ip), vehicle: Klucel (hydroxypropylcellulose) (HPC)) 98 % of control; (dose: 53.0 mg/kg/injection, schedule: Q01DX001 (ip), vehicle: carboxymethylcellulose (CMC)) 117 % of control. Moreover, the T/C is, setting by setting: (dose: 80.0 mg/kg/injection, schedule: Q01DX001 (ip), vehicle: carboxymethylcellulose (CMC)) 117 % of control; under setting [3], 109 % of control; (dose: 177.0 mg/kg/injection, schedule: Q01DX001 (ip), vehicle: carboxymethylcellulose (CMC)) 150 % of control; (dose: 177.0 mg/kg/injection, schedule: Q01DX009 (ip), vehicle: carboxymethylcellulose (CMC)) 278 % of control; (dose: 266.0 mg/kg/injection, schedule: Q01DX001 (ip), vehicle: carboxymethylcellulose (CMC)) 225 % of control; (dose: 266.0 mg/kg/injection, schedule: Q01DX009 (ip), vehicle: carboxymethylcellulose (CMC)) 188 % of control. For the same compound, the T/C under setting [9] was 275 % of control; the T/C (dose: 400.0 mg/kg/injection, schedule: Q01DX009 (ip), vehicle: carboxymethylcellulose (CMC)) was 103 % of control; the T/C (dose: 600.0 mg/kg/injection, schedule: Q01DX001 (ip), vehicle: carboxymethylcellulose (CMC)) was 250 % of control.

As to `C=CCC#N`, the T/C runs as follows: (dose: 25.0 mg/kg/injection, schedule: Q01DX009 (ip), vehicle: saline) 95 % of control; (dose: 50.0 mg/kg/injection, schedule: Q01DX009 (ip), vehicle: saline) 101 % of control; (dose: 100.0 mg/kg/injection, schedule: Q01DX009 (ip), vehicle: saline) 97 % of control.

With `CCC(=O)c1ccc(OCC(O)CN2CCN(c3ccccc3OC)CC2)cc1` (stereo not given), the T/C is, setting by setting: under setting [1], 96 % of control; under setting [2], 96 % of control; under setting [10], 103 % of control.

Consider `COc1cccc2sc3ccccc3c(=O)c12`, for which the T/C (dose: 100.0 mg/kg/injection, schedule: Q01DX009 (ip), vehicle: saline with Tween-80) was 102 % of control; the T/C under setting [1] was 101 % of control; the T/C (dose: 200.0 mg/kg/injection, schedule: Q01DX009 (ip), vehicle: saline with Tween-80) is 86 % of control; the T/C under setting [2] was 102 % of control; the T/C (dose: 400.0 mg/kg/injection, schedule: Q01DX009 (ip), vehicle: saline with Tween-80) was 87 % of control; the T/C under setting [10] is 87 % of control.

For the compound `C[N+](C)(C)C1/C=C(/Cl)CC/C=C(/Cl)C1` (stereo not given), the T/C is 96 % of control (dose: 9.38 mg/kg/injection, schedule: Q01DX001 (ip), vehicle: saline); 89 % of control (dose: 18.75 mg/kg/injection, schedule: Q01DX001 (ip), vehicle: saline); 97 % of control (dose: 37.5 mg/kg/injection, schedule: Q01DX001 (ip), vehicle: saline).

In the case of `CCOC(=O)c1ccc(N=NN(CCF)CCF)cc1`, the T/C is, setting by setting: (dose: 10.0 mg/kg/injection, schedule: Q01DX Z (ip), vehicle: saline) 95 % of control; (dose: 30.0 mg/kg/injection, schedule: Q01DX Z (ip), vehicle: saline) 94 % of control; (dose: 100.0 mg/kg/injection, schedule: Q01DX Z (ip), vehicle: saline) 89 % of control; (dose: 300.0 mg/kg/injection, schedule: Q01DX Z (ip), vehicle: saline) 95 % of control.

For the compound `CN(C)c1ccc(C=Nc2cccc([N+](=O)[O-])c2)cc1`, the T/C (dose: 100.0 mg/kg/injection, schedule: Q01DX001 (ip), vehicle: Klucel (hydroxypropylcellulose) (HPC)) was 91 % of control; the T/C (dose: 200.0 mg/kg/injection, schedule: Q01DX001 (ip), vehicle: Klucel (hydroxypropylcellulose) (HPC)) was 86 % of control; the T/C (dose: 400.0 mg/kg/injection, schedule: Q01DX001 (ip), vehicle: Klucel (hydroxypropylcellulose) (HPC)) is 90 % of control.

As to `Cc1cc(N(C)C)cc(C)c1N=Nc1cc(Cl)ccc1Cl`, the T/C reads like this: under setting [4], 94 % of control; under setting [5], 96 % of control; under setting [6], 87 % of control.

Take `c1ccc([As+](c2ccccc2)(c2ccccc2)c2ccccc2)cc1`: the T/C reads like this: (dose: 1.1 mg/kg/injection, schedule: Q01DX Z (ip), vehicle: carboxymethylcellulose (CMC)) 120 % of control; (dose: 1.2 mg/kg/injection, schedule: Q04DX003 (ip), vehicle: carboxymethylcellulose (CMC)) 119 % of control; (dose: 1.7 mg/kg/injection, schedule: Q01DX Z (ip), vehicle: carboxymethylcellulose (CMC)) 104 % of control and 119 % of control; (dose: 2.5 mg/kg/injection, schedule: Q01DX Z (ip), vehicle: carboxymethylcellulose (CMC)) 101 % of control; (dose: 2.5 mg/kg/injection, schedule: Q01DX Z (ip), vehicle: methylcellulose (MC)) 119 % of control; (dose: 2.5 mg/kg/injection, schedule: Q04DX003 (ip), vehicle: carboxymethylcellulose (CMC)) 117 % of control. Moreover, the T/C is 107 % of control (dose: 3.76 mg/kg/injection, schedule: Q01DX Z (ip), vehicle: carboxymethylcellulose (CMC)); 115 % of control (dose: 5.0 mg/kg/injection, schedule: Q01DX001 (ip), vehicle: carboxymethylcellulose (CMC)); 106 % of control under setting [7]; 116 % of control (dose: 5.0 mg/kg/injection, schedule: Q04DX003 (ip), vehicle: carboxymethylcellulose (CMC)); 102 % of control (dose: 5.56 mg/kg/injection, schedule: Q01DX Z (ip), vehicle: carboxymethylcellulose (CMC)); 106 % of control under setting [8].

For `CCCNC(=O)c1cc(NC(=O)Nc2ccc(C3=NCCCN3)cc2)cc(NC(=O)Nc2ccc(C3=NCCCN3)cc2)c1`, the T/C is 115 % of control (dose: 21.0 mg/kg/injection, schedule: Q01DX Z (ip), vehicle: carboxymethylcellulose (CMC)); 113 % of control (dose: 42.0 mg/kg/injection, schedule: Q01DX Z (ip), vehicle: carboxymethylcellulose (CMC)); 117 % of control (dose: 84.0 mg/kg/injection, schedule: Q01DX Z (ip), vehicle: carboxymethylcellulose (CMC)).

For the compound `CC(=O)Nc1ccc2c(c1)Cc1cc(Br)ccc1-2`, the T/C by setting is: under setting [4], 100 % of control; under setting [5], 100 % of control; under setting [6], 103 % of control.

On to `S=c1c2ccccc2sn1-c1ccccc1`, for which the T/C runs as follows: (dose: 100.0 mg/kg/injection, schedule: Q01DX001 (ip), vehicle: carboxymethylcellulose (CMC)) 92 % of control; (dose: 200.0 mg/kg/injection, schedule: Q01DX001 (ip), vehicle: carboxymethylcellulose (CMC)) 94 % of control; under setting [9], 87 % of control.

The values above are taken from PubChem BioAssay AID248 (DTP/NCI, 2004).
